{
  "source": "patent US20070244196A1",
  "about": "“Prostaglandin F2alpha derivative-containing product” (SANTEN PHARMACEUTICAL CO., LTD., priority 2004, published 2007)",
  "assay": "Storage stability test (eye drop in contact with resin containers, 40° C. for 7 days, HPLC)",
  "type": "physicochemical",
  "conditions": "eye drop (present compound 0.0005%, polysorbate 80 0.05%, pH about 6), containers of propylene/ethylene random copolymer (98.7/1.3, 97.4/2.6, 96.4/3.6) compared with propylene homopolymer container",
  "experimental": "Hereinafter, the present invention will be described in detail through carrying out a storage stability test (40° C. for 7 days). However, such descriptions are disclosed for the purpose of understanding the present invention better and are not meant to limit the scope of the present invention.\nAs a typical example of a prostaglandin F2α derivative having at least a fluorine atom in its molecule, 16-phenoxy-15-deoxy-15,15-difluoro-17,18,19,20-tetranor-prostaglandin F2α isopropyl ester (hereinafter, referred to as the “present compound” ) was used. The present compound (0.0005%) and polysorbate 80 (0.05%) were dissolved in purified water, and then, commonly used additives such as disodium edetate (q.s.), concentrated glycerin (q.s.), benzalkonium chloride (q.s.) and the like were added thereto to obtain an eye drop with an osmotic pressure of about 1 and a pH of about 6. […]\nThe eye drop (110 ml) obtained in the section of “(1) Preparation of Eye Drop” was placed in a glass container and the glass container was heated to 40° C. […] The amount of the present compound contained in the glass container was measured by high performance liquid chromatography before and after the storage, and the content of the present compound (average) was calculated taking the content of the present compound at the time of initiation of storage as 100%.",
  "data": [
    {"molecule": "CC(C)OC(=O)CCC/C=C\\C[C@@H]1[C@@H](/C=C/C(F)(F)COc2ccccc2)[C@H](O)C[C@@H]1O", "note": "[present compound, 16-phenoxy-15-deoxy-15,15-difluoro-17,18,19,20-tetranor-prostaglandin F2α isopropyl ester]", "values": [
      {"measurement": "content of the present compound (average), content at the time of initiation of storage taken as 100%", "value": "higher"}
    ]}
  ]
}
